Measured values reported in ChEMBL document CHEMBL3621096, “Discovery of Potent and Selective Inhibitors for ADAMTS-4 through DNA-Encoded Library Technology (ELT)” (ACS Med Chem Lett, 2015).

target: T1, A disintegrin and metalloproteinase with thrombospondin motifs 4 (Homo sapiens, UniProt O75173); experiment: Inhibition of recombinant human ADAMTS4 (213 to 575 amino acid residues) using WAAG-3R as substrate preincubated for 15 mins followed by substrate addition measured every 30 secs for 1 hr
T1 sequence (O75173 whole entry): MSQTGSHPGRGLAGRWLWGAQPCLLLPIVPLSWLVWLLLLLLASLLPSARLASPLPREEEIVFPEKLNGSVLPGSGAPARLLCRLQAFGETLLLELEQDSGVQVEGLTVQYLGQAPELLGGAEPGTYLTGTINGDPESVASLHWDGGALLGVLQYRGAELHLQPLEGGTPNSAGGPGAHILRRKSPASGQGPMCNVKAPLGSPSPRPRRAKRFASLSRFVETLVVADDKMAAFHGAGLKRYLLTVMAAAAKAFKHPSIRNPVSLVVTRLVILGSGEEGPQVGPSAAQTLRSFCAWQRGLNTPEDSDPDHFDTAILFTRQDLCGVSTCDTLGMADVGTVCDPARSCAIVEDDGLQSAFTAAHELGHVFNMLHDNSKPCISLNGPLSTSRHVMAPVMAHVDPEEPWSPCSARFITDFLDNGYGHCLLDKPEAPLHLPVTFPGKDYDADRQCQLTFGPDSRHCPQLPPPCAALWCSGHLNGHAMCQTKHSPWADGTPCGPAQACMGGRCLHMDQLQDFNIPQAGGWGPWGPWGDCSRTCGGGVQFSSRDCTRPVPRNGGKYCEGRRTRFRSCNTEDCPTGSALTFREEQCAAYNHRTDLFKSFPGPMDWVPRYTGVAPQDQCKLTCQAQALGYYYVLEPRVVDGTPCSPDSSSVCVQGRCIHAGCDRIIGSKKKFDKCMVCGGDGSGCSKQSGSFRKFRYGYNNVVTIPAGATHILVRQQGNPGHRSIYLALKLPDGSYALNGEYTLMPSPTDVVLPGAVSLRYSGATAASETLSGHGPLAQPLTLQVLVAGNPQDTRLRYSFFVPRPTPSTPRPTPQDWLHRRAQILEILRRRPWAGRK

| IC50 [nM] | SMILES |
| --- | --- |
| > 10000 | CCN(C(=O)c1ccc(CNc2ncnc(N3CCCCC3)n2)cc1)c1cccc(C)c1 |
| 5600 | CCN(C(=O)c1ccc(CNc2ncnc(N3Cc4ccccc4C3)n2)cc1)c1cccc(C)c1 |
| 3000 | CNC(=O)c1ccc(CNc2nc(NCCN3CCN(C)CC3)nc(N3CCc4cc(OC)c(OC)cc4C3)n2)cc1 |
| 14 | CCN(C(=O)c1ccc(CNc2nc(NCCN(C)C)nc(N3CCc4cc(OC)c(OC)cc4C3)n2)cc1)c1cccc(C)c1 |
| 8 | CCN(C(=O)c1ccc(CNc2nc(NCCN(C)C)nc(N3CCc4ccccc4C3)n2)cc1)c1cccc(C)c1 |
| 181 | CCN(C(=O)c1ccc(CNc2nc(Nc3ccccc3)nc(N3CCc4cc(OC)c(OC)cc4C3)n2)cc1)c1cccc(C)c1 |
| 63 | CCN(C(=O)c1ccc(CNc2ncnc(N3CCc4ccccc4C3)n2)cc1)c1cccc(C)c1 |
| 43 | CCN(C)C(=O)c1ccc(CNc2nc(NCCN(C)C)nc(N3CCc4ccccc4C3)n2)cc1 |
| 1700 | CCN(C)C(=O)c1ccc(CNc2ncnc(N3CCc4ccccc4C3)n2)cc1 |
| 163 | CCN(C(=O)c1ccc(CNc2nc(NCCc3ccco3)nc(N3CCc4cc(OC)c(OC)cc4C3)n2)cc1)c1cccc(C)c1 |
| 10 | CCN(C(=O)c1ccc(CNc2nc(NCCN3CCN(C)CC3)nc(N3CCc4cc(OC)c(OC)cc4C3)n2)cc1)c1cccc(C)c1 |
| 6 | CCN(C(=O)c1ccc(CNc2nc(NCCN3CCN(C)CC3)nc(N3CCc4ccccc4C3)n2)cc1)c1cccc(C)c1 |
| 5500 | CCN(C)C(=O)c1ccc(CNc2nc(N3CCN(C)CC3)nc(N3CCc4ccccc4C3)n2)cc1 |
| 102 | CCN(C(=O)c1ccc(CNc2nc(Cl)nc(N3CCc4cc(OC)c(OC)cc4C3)n2)cc1)c1cccc(C)c1 |
| 60 | CCN(C(=O)c1ccc(CNc2nc(NCc3ccccc3)nc(N3CCc4cc(OC)c(OC)cc4C3)n2)cc1)c1cccc(C)c1 |
| 81 | CCN(C)C(=O)c1ccc(CNc2nc(NCCN(C)C)nc(N3CCc4cc(OC)c(OC)cc4C3)n2)cc1 |
| 1820 | CCN(C)C(=O)c1ccc(CNc2ncnc(N3CCc4cc(OC)c(OC)cc4C3)n2)cc1 |

| IC50 [nM] | SMILES |
| --- | --- |
| 22 | CCN(C(=O)c1ccc(CNc2nc(O)nc(N3CCc4cc(OC)c(OC)cc4C3)n2)cc1)c1cccc(C)c1 |
| 3000 | COc1cc2c(cc1OC)CN(c1nc(NCCN3CCN(C)CC3)nc(NCc3ccccc3)n1)CC2 |
| 284 | CCN(C(=O)c1ccc(CNc2nc(NC3CCCCC3)nc(N3CCc4cc(OC)c(OC)cc4C3)n2)cc1)c1cccc(C)c1 |
| 333 | CCN(C(=O)c1ccc(CNc2ncnc(N3CCc4ccc(F)cc4C3)n2)cc1)c1cccc(C)c1 |
| 88 | CCN(C(=O)c1ccc(CNc2nc(NCC(=O)O)nc(N3CCc4cc(OC)c(OC)cc4C3)n2)cc1)c1cccc(C)c1 |
| 23 | CCN(C(=O)c1ccc(CNc2ncnc(N3CCc4cc(OC)c(OC)cc4C3)n2)cc1)c1cccc(C)c1 |
| 518 | COc1cc2c(cc1OC)CN(c1nc(NCCN3CCN(C)CC3)nc(NCc3ccc(C(=O)Nc4cccc(C)c4)cc3)n1)CC2 |
| 8500 | CCN(C)C(=O)c1ccc(CNc2nc(N3CCN(C)CC3)nc(N3CCc4cc(OC)c(OC)cc4C3)n2)cc1 |
| 64 | CCN(C)C(=O)c1ccc(CNc2nc(NCCN3CCN(C)CC3)nc(N3CCc4cc(OC)c(OC)cc4C3)n2)cc1 |
| 61 | CCN(C(=O)c1ccc(CNc2nc(NCc3ccccc3)nc(N3CCc4ccccc4C3)n2)cc1)c1cccc(C)c1 |
| 60 | CCN(C(=O)c1ccc(CNc2nc(NC(C)C)nc(N3CCc4cc(OC)c(OC)cc4C3)n2)cc1)c1cccc(C)c1 |
| 30 | CCN(C(=O)c1ccc(CNc2nc(NC)nc(N3CCc4cc(OC)c(OC)cc4C3)n2)cc1)c1cccc(C)c1 |
| 6500 | CCN(C(=O)c1ccc(CNc2nc(NCCN3CCN(C)CC3)nc(N3CCCc4ccccc43)n2)cc1)c1cccc(C)c1 |
| 370 | CCN(C(=O)c1ccc(CNc2ncnc(N3CCc4cc(F)ccc4C3)n2)cc1)c1cccc(C)c1 |
| 158 | CCN(C(=O)c1ccc(CNc2ncnc(NCc3ccc(OC)c(OC)c3)n2)cc1)c1cccc(C)c1 |
| > 10000 | COc1cc2c(cc1OC)CN(c1nc(NCCN3CCN(C)CC3)nc(NCc3ccc(C(=O)O)cc3)n1)CC2 |

target: T2, A disintegrin and metalloproteinase with thrombospondin motifs 5 (Homo sapiens) (UniProt Q9UNA0); experiment: Inhibition of ADAMTS5 (unknown origin) using WAAG-3R as substrate at 10 uM preincubated for 15 mins followed by substrate addition measured every 30 secs for 1 hr relative to control
T2 sequence (whole entry): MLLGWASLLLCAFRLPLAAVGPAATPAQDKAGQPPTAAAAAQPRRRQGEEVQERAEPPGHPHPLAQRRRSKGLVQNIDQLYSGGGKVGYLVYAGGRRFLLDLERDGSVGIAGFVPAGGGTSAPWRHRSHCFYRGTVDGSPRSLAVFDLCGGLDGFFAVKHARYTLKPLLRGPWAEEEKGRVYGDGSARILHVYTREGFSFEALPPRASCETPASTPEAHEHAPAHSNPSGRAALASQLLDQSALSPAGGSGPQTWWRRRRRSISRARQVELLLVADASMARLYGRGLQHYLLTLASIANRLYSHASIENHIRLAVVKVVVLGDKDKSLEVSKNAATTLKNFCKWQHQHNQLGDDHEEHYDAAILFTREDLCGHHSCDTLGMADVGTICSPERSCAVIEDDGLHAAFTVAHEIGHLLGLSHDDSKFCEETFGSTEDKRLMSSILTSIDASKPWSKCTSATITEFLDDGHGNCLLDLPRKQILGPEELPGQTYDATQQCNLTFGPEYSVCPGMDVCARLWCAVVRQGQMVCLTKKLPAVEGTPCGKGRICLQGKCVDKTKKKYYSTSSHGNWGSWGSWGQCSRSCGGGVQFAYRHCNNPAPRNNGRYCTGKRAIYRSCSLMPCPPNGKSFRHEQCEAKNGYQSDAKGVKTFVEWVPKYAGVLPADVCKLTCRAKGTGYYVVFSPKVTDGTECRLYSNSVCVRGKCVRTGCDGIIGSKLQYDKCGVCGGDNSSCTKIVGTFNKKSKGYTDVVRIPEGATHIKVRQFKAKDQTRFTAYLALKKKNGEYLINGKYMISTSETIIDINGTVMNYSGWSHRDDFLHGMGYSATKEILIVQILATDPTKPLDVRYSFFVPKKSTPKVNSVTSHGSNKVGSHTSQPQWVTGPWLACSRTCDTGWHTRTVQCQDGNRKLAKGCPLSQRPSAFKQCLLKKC

| inhibition [%] | SMILES |
| --- | --- |
| 30 | CCN(C(=O)c1ccc(CNc2nc(NCCN3CCN(C)CC3)nc(N3CCc4cc(OC)c(OC)cc4C3)n2)cc1)c1cccc(C)c1 |

target: T3, A disintegrin and metalloproteinase with thrombospondin motifs 5 (Homo sapiens, UniProt Q9UNA0); experiment: Inhibition of ADAMTS5 (unknown origin) using WAAG-3R as substrate preincubated for 15 mins followed by substrate addition measured every 30 secs for 1 hr
T3 sequence (Q9UNA0 whole entry): T2 sequence (whole entry)

| IC50 [nM] | SMILES |
| --- | --- |
| > 10000 | CCN(C(=O)c1ccc(CNc2nc(NCCN3CCN(C)CC3)nc(N3CCc4cc(OC)c(OC)cc4C3)n2)cc1)c1cccc(C)c1 |

target: T4, A disintegrin and metalloproteinase with thrombospondin motifs 13 (Homo sapiens, UniProt Q76LX8); experiment: Inhibition of human recombinant ADAMTS13 using FRETSVWF73 as substrate by fluorescence assay
T4 sequence (Q76LX8 whole entry): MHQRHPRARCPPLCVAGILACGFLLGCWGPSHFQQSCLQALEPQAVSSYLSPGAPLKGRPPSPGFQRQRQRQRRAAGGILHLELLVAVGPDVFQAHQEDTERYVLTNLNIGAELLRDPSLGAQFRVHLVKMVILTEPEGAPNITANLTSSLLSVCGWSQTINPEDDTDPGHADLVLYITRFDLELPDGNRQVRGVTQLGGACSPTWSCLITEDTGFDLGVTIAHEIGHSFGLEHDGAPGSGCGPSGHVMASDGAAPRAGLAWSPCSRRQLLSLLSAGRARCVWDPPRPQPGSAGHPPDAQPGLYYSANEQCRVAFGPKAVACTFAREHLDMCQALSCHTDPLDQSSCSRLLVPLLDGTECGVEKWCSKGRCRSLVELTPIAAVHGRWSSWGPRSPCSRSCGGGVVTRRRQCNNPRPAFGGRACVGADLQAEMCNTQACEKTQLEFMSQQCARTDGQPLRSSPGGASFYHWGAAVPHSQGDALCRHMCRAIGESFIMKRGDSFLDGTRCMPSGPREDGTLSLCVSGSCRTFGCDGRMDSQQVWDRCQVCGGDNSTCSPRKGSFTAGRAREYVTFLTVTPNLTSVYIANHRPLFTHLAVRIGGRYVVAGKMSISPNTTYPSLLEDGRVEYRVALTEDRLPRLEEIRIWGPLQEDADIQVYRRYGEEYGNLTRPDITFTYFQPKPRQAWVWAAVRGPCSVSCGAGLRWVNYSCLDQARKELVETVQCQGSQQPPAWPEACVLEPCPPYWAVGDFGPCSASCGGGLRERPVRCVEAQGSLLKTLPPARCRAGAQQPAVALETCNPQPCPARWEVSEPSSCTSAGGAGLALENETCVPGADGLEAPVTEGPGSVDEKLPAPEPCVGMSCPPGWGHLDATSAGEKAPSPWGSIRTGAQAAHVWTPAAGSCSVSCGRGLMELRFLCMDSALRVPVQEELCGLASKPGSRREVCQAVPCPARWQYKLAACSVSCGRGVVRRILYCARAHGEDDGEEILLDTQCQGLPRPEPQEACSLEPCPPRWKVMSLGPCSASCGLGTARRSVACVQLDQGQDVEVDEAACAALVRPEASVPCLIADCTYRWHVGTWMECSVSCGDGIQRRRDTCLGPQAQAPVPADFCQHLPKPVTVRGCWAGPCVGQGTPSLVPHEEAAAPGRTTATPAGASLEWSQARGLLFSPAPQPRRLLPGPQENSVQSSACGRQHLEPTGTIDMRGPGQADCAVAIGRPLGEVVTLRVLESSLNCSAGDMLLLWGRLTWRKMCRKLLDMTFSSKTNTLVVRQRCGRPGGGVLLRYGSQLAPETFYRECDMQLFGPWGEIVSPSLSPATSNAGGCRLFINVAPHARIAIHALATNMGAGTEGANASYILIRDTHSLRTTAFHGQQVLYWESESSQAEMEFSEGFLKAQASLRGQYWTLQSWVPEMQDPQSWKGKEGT

| IC50 [nM] | SMILES |
| --- | --- |
| > 10000 | CCN(C(=O)c1ccc(CNc2nc(NCCN3CCN(C)CC3)nc(N3CCc4cc(OC)c(OC)cc4C3)n2)cc1)c1cccc(C)c1 |

target: Collagenase 3 (Homo sapiens, UniProt P45452); experiment: Inhibition of human recombinant MMP13 using 5-FAMTPGPLGL[Dap(DNP)]ARRK(5-TAMRA)-amide as substrate after 45 mins

| IC50 [nM] | SMILES |
| --- | --- |
| > 10000 | CCN(C(=O)c1ccc(CNc2nc(NCCN3CCN(C)CC3)nc(N3CCc4cc(OC)c(OC)cc4C3)n2)cc1)c1cccc(C)c1 |

target: Disintegrin and metalloproteinase domain-containing protein 17 (Homo sapiens, UniProt P78536); experiment: Inhibition of human recombinant TACE using Mca-PLAQAV-Dpa-RSSSR-NH2 as substrate preincubated for 15 mins measured every 30 secs for 30 mins by fluorescence assay
Sequence (P78536 whole entry, the tested form may be a part): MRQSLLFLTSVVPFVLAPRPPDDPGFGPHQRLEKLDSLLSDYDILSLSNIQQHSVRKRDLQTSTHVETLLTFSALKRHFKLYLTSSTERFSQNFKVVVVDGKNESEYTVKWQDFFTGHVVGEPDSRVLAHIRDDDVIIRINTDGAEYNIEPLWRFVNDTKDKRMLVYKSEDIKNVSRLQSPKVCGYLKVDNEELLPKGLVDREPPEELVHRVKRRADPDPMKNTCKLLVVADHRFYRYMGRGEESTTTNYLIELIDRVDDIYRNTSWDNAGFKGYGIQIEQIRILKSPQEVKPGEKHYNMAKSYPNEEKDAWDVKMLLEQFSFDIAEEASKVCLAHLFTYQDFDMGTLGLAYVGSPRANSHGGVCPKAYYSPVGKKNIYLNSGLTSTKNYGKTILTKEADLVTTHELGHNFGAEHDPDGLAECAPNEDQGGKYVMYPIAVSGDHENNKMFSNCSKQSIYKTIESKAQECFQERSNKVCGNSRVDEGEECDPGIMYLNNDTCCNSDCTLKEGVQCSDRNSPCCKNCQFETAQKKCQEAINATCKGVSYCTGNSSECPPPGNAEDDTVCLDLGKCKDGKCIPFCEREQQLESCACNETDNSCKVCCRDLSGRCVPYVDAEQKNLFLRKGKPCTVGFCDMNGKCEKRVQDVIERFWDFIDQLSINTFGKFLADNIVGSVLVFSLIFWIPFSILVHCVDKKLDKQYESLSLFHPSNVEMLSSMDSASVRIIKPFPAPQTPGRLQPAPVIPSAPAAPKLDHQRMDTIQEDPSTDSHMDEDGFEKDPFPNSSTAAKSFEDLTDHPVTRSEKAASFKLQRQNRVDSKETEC

| IC50 [nM] | SMILES |
| --- | --- |
| > 10000 | CCN(C(=O)c1ccc(CNc2nc(NCCN3CCN(C)CC3)nc(N3CCc4cc(OC)c(OC)cc4C3)n2)cc1)c1cccc(C)c1 |
